{"source": "patent US7018631B1", "about": "“Compositions and methods for sensitizing and inhibiting growth of human tumor cells” (St. Jude Children's Research Hospital, priority 1998, dated 2006)", "key": {"[1]": {"target": "T1, topoisomerase I (Homo sapiens, UniProt P11387)", "T1 sequence (P11387 1-765)": "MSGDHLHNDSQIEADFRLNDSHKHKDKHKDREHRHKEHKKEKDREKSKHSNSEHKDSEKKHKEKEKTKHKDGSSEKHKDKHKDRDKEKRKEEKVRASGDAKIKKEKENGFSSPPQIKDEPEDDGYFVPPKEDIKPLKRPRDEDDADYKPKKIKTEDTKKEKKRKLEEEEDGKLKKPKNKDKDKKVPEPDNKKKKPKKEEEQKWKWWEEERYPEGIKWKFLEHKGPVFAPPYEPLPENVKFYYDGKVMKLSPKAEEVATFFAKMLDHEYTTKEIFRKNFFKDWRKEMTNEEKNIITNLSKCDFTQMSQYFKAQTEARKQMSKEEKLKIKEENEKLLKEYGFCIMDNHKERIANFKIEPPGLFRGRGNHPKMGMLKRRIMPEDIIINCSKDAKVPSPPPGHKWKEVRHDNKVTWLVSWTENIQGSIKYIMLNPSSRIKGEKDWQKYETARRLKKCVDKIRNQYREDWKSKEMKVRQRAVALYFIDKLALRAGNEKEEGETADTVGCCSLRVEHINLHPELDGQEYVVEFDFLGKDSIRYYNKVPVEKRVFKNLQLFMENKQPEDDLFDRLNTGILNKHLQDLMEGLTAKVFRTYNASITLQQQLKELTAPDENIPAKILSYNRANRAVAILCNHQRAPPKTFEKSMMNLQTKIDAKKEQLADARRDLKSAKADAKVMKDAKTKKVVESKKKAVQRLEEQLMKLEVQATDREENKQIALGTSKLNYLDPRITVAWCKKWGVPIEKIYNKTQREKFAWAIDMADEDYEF", "conditions": "cited from earlier work"}, "[2]": {"tested_on": "Rh18 RMS xenografts", "conditions": "cited from earlier work"}, "[3]": {"tested_on": "U373 glioblastoma xenografts", "assay": "U373 glioblastoma xenografts in SCID mice treated with CPT-11", "format": "in vivo", "conditions": "7.5 mg/kg/day, three cycles", "excerpt": "The tumor growth rate is depicted on the Y-axis in terms of tumor volume and is plotted as a function of time in weeks (X-axis). Open circles depict the tumor volume of untreated U373 xenografts expressing rabbit CE. Filled triangles depict the response of control xenografts (no rabbit CE) treated with CPT-11. Filled squares depict the response of cells expressing rabbit CE and treated with CPT-11. […] Each point represents the mean of 14 tumors in 7 individual mice.\nSimilar studies were performed employing U373 glioblastoma cells transfected with the pIRESneo plasmid or with pIRESneo containing the cDNA for rabbit liver CE and selected with G418. Expression of CE in the tumor cells was confirmed by biochemical assay using the substrate o-NPA. Cells were injected subcutaneously into the flanks of the SCID mice."}, "[4]": {"tested_on": "Rh30 rhabdosarcoma xenografts", "assay": "Rh30 and Rh30pIRESrabbit xenografts in SCID mice treated with CPT-11", "format": "in vivo", "conditions": "for tumor response: 2.5 mg CPT-11/kg/day, three cycles", "procedure": "The tumor growth rate is depicted on the Y-axis of each graph in terms of tumor volume and is plotted as a function of time in weeks (X-axis).\nIn this preclinical model, expression of the transfected cDNA for rabbit CE was maintained for at least 12 weeks.\nExperiments were performed in this model to compare the responses of mice bearing human Rh30 and Rh30pIRESrabbit xenografts. Rh30 rhabdosarcoma xenografts were transfected with pIRESneo plasmid containing the cDNA for rabbit liver CE and selected with G418. Expression of CE was confirmed by biochemical assay using the CE substrate o-NPA and maintained for at least 12 weeks. Two groups of SCID mice were then injected with the transfected Rh30pIRESrabbit cells subcutaneously into the flanks. A third group of control mice was injected in identical fashion with Rh30 cells not transfected with the plasmid."}, "[5]": {"tested_on": "CEs purified from human tissues", "conditions": "human CE; cited from earlier work"}, "[6]": {"tested_on": "pig liver CE", "assay": "Metabolism of CPT-11 by commercially available pig liver CE, rapid fluorometric assay", "format": "biochemical", "conditions": "partially purified commercial pig liver CE", "excerpt": "(§1) The commercially available pig CE contained several proteins. […] Therefore, the rabbit proteins were chosen for further study."}, "[7]": {"tested_on": "Rh30 rhabdomyosarcoma cells", "assay": "Growth inhibition by CPT-11 of Rh30 cells stably transfected with pIRES or rabbit CE cDNA", "format": "cell-based", "conditions": "Homo sapiens, Rh30, 2 h, 2 h exposure", "procedure": "The in vitro activity of rabbit liver CE was examined in tumor cell lines. […] Optimized conditions for electroporation were achieved using 180 V and 960 uF. […] Cells were grown for a minimum of 10 days before use in growth inhibition experiments. […] Drug was added to tissue culture medium of each of the stably transfected cell lines for two hours, after which time the medium was replaced with drug-free medium. Cells were then allowed to grow for 3 cell doublings as before."}, "[8]": {"target": "T2, rabbit liver CE (Oryctolagus cuniculus, UniProt P12337)", "T2 sequence (P12337 19-565)": "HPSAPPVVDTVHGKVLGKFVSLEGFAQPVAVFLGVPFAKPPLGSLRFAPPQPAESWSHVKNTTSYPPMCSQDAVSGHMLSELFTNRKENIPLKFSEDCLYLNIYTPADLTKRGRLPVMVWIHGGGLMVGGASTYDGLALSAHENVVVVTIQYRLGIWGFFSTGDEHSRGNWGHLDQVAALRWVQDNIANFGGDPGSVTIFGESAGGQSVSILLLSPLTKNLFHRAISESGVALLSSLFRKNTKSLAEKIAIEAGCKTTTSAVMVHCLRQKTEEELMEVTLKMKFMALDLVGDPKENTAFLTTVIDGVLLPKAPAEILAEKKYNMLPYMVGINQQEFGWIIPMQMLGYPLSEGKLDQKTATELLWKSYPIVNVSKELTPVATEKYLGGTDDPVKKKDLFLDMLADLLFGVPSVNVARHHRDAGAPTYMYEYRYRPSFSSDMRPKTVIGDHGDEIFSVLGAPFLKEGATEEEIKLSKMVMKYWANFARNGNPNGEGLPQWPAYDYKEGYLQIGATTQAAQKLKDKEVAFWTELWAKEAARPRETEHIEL", "assay": "Metabolism of CPT-11 by commercially available rabbit liver CE, rapid fluorometric assay", "format": "biochemical", "conditions": "partially purified commercial rabbit liver CE", "excerpt": "as §1"}, "[9]": {"conditions": "patients; cited from earlier work"}, "[10]": {"tested_on": "human NB-1691 xenografts", "assay": "NB-1691 xenograft model for MRD", "format": "in vivo, mice", "conditions": "10 mg/kg CPT-11 daily for 5 days on two consecutive weeks", "excerpt": "However, within 4–6 weeks, tumors are palpable in the exact position where the original xenograft was implanted. Since these tumors arise from cells that survived the initial cycle of chemotherapy, this model therefore mimics results seen in patients following surgical resection of the primary tumor and subsequent regrowth at the same site."}, "[11]": {"tested_on": "Rh30 cells", "assay": "Growth inhibition of Rh30 cells by CPT-11 pre-incubated with rabbit liver CE", "format": "cell-based, human", "conditions": "1 to 5 units of CE inactivated by heating; 1 h exposure", "excerpt": "Another aspect of the present invention relates to the ability of compositions of the present invention comprising a polynucleotide encoding a carboxylesterase and a disease-specific responsive promoter of selected tumor cells to sensitize the tumor cells to a chemotherapeutic prodrug. The ability of the combination of a rabbit CE of the present invention and CPT-11 to sensitize human tumor cells to CPT-11 was examined. Experiments were first performed to confirm that the metabolite produced by the activity of a CE of the present invention is biologically active in vitro. Rh30 cells were then exposed to the products of each reaction for one hour and the percentage of growth inhibition was determined.\nEach reaction mixture was then filter-sterilized and Rh30 cells were exposed to drug for one hour, at which time the medium was replaced with drug-free medium containing serum. […] Cells were allowed to grow for 3 cell doubling times and cell numbers were determined."}, "[12]": {"target": "T2, rabbit liver CE", "assay": "In vitro conversion of APC to SN-38 by rabbit liver CE", "format": "biochemical", "conditions": "FIG. 6", "excerpt": "FIG. 6 is a linegraph showing the conversion of APC, depicted on the X-axis at nanomolar concentrations, to SN-38, depicted on the Y-axis at nanomolar concentrations, in vitro by the activity of rabbit liver CE given at doses of 0 (filled cross), 10 (filled hexagon), 25 (filled triangle), 50 (filled circle) or 100 (filled square) units. Data presented represent the mean response at each dose level.\n(§2) No known human enzyme activates APC. […] Thus, the combination of APC and sensitization of selected tumor cells with rabbit liver CE as described above can be used to produce a tumor-specific cell death while greatly minimizing the toxic side effects associated with administration of chemotherapy."}, "[13]": {"tested_on": "U-373 glioma cells", "assay": "Sensitization of U-373 glioma cells expressing CE to APC", "format": "cell-based, human", "conditions": "2 h exposure", "procedure": "FIG. 7 is a linegraph showing a comparison of the sensitization, depicted as % survival on the Y-axis, of U-373 glioma cells exposed to APC, depicted as log[APC] at concentrations from 10^−8 to 10^−5 M on the X-axis, from in situ expression of rabbit liver CE (filled squares) and human alveolar macrophage CE (filled circles). Cells were exposed for 2 hours to APC.\nas §2"}, "[14]": {"conditions": "tumors not expressing CE (Rh30)"}}, "note": "“Also recorded” adds a separate entry of the source. Where two headings read alike, the source gives them in different places.", "data": [{"smiles": "CCc1c2c(nc3ccc(O)cc13)-c1cc3c(c(=O)n1C2)COC(=O)[C@]3(O)CC", "note": "[SN-38, 7-ethyl-10-hydroxy-camptothecin]", "values": [{"measurement": "inhibition of topoisomerase I", "setting": "[1]", "result": "potent inhibitor"}]}, {"smiles": "CCc1c2c(nc3ccc(OC(=O)N4CCC(N5CCCCC5)CC4)cc13)-c1cc3c(c(=O)n1C2)COC(=O)[C@]3(O)CC", "note": "[CPT-11, 7-ethyl-10-[4-(1-piperidino)-1-piperidino]carbonyloxycamptothecin]", "values": [{"measurement": "tumor response", "setting": "[2]; 10 mg/kg/day, same schedule", "result": "only partial tumor regression"}, {"measurement": "tumor response", "setting": "[2]; 20 mg of CPT-11/kg/day daily for 5 days for two weeks", "result": "complete regressions"}, {"measurement": "tumor response", "setting": "[3]; xenografts from cells transfected with control plasmid (no rabbit CE)", "result": "stable disease but no significant regression; also recorded: stable disease with no significant regression"}, {"measurement": "tumor response", "setting": "[3]; xenografts from cells transfected with plasmid encoding rabbit CE", "result": "tumor regression was seen only in treated cells expressing rabbit CE; also recorded: regressed completely"}, {"measurement": "tumor response", "setting": "[4]; tumors expressing rabbit CE (Rh30pIRESrabbit), 5 days/week for 2 weeks, 12 weeks", "result": "complete tumor regression; also recorded: regressed completely and did not regrow"}, {"measurement": "time to regrowth after CPT-11 treatment stopped", "setting": "[4]; [14]", "result": "within one week"}, {"measurement": "tumor response", "setting": "[4]; [14]", "result": "initial regression but regrowth; also recorded: regressed only transiently"}, {"measurement": "prodrug converted to active drug SN-38", "setting": "[5]", "result": "less than 5%"}, {"measurement": "metabolism of CPT-11", "setting": "[6]", "result": "metabolized CPT-11 efficiently"}, {"measurement": "IC50", "setting": "[7]; read-out: IC50 of CPT-11, Rh30pIRES cells (no CE cDNA)", "result": 4330, "unit": "nM"}, {"measurement": "IC50", "setting": "[7]; read-out: IC50 of CPT-11, Rh30pIRESrabbit cells (rabbit CE cDNA)", "result": 576, "unit": "nM"}, {"measurement": "metabolism of CPT-11", "setting": "[8]", "result": "metabolized CPT-11 efficiently"}, {"measurement": "dose-limiting toxicities", "setting": "[9]", "result": "myelosuppression and secretory diarrhea"}, {"measurement": "time until tumors are palpable again at the original site", "setting": "[10]", "result": "4–6 weeks"}, {"measurement": "tumor response", "setting": "[10]", "result": "complete regression"}, {"measurement": "inhibition of cell growth", "setting": "[11]", "result": "no inhibition of cell growth"}]}, {"smiles": "CCc1c2c(nc3ccc(OC(=O)N4CCC(NCCCCC(=O)O)CC4)cc13)-c1cc3c(c(=O)n1C2)COC(=O)[C@]3(O)CC", "note": "[APC]", "values": [{"measurement": "conversion of APC to SN-38", "setting": "[12]", "result": "converted to SN-38 in a concentration-dependent manner"}, {"measurement": "sensitization to growth inhibitory effects of APC", "setting": "[13]; U-373 cells expressing human alveolar macrophage CE", "result": "not"}, {"measurement": "sensitization to growth inhibitory effects of APC", "setting": "[13]; U-373 cells expressing rabbit liver CE", "result": "sensitized"}]}]}
